The source of these data is patent US12062444B2, “Methods and compositions related to triple-negative breast cancer” (THE UNIVERSITY OF CHICAGO, priority 2017, dated 2024).

Data set [1] relates to GR-regulated gene expression in MDA-MB-231 cells. Put plainly: Gene expression microarray and analysis. It is filed as cell-based, human. On the procedure: MDA-MB-231 cells were grown to 80% confluence in 15-cm dishes in DMEM with 10% FBS. […] Following compound exposure, cells were washed in PBS, and lysed in RNA lysis buffer (Qiagen) overnight at -80° C. RNA extraction, with accompanying DNase treatment, was performed using the RNeasy kit (Qiagen) following the manufacturer's protocol. […] The University of Chicago Genomics Core facility carried out the reverse transcription on the samples, followed by microarray using the Affymetrix Human U133 Plus 2.0 platform. […] A principal components analysis (PCA) was performed using the prcomp function in R (Q-mode PCA using singular value decomposition). […] Dex-regulated genes were overlapped with a list of n=5,170 differentially-expressed tumor-derived genes (in the same direction) from GR-high versus GR-low BCs (52). Ingenuity Pathway Analysis (Qiagen) of the n=462 patient-relevant and antagonist-inhibited genes was performed to obtain Activation Z-scores of the most significant Diseases and Biofunctions (cell functions).

In another data set the test system is apoptotic cells. The following applies: RU486 in conjunction with dexamethasone, compared to paclitaxel alone; cited from earlier work.
The next data set concerns the target T1, GR LBD (Homo sapiens, UniProt P04150).
T1 construct: The wild-type GR-LBD (amino acid residues 522-777) was cloned into a pFASTBAC plasmid; 6X-His (TEV-cleavable) (cleaved yes); made in house; host or cells: SF9 insect cells (baculovirus, pFASTBAC)
T1 sequence (P04150 522-777): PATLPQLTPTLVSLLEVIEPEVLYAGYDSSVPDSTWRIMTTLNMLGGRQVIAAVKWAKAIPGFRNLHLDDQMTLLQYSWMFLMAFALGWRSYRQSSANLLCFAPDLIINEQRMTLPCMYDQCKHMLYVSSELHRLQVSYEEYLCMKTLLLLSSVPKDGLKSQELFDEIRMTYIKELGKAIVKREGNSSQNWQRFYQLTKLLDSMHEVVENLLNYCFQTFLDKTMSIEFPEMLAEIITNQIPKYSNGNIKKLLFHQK
Put plainly: Ligand titration assay via fluorescence polarimetry (displacement of F-Dex). The class given is binding. On the procedure: SF9 insect cells were transfected with recombinant bacmid and virus (collected after 6 days) was amplified prior to protein expression. […] GR-LBD was purified first using Ni-affinity chromatography followed by overnight dialysis with TEV protease to remove the His tag. Extensive dialysis into 20 mM TRIS pH 8.0, 500 mM NaCl, 5% glycerol, 0.1% CHAPS, 0.25 mM TCEP was performed to obtain non-ligand-bound GR LBD. […] The purified proteins were concentrated to 5 mg/ml, flash frozen in 50 ul aliquots in N2(l), and stored at −80C.
GR LBD was diluted in assay buffer (20 mM TRIS pH 7.5, 50 mM NaCl, 0.25 mM TCEP) to a concentration of 50 nM. […] Triplicate FP measurements were scaled to maximal FP and averaged for each ligand concentration.

For another data set, the system named is tumor cell survival. The following applies: in vitro and in vivo; cited from earlier work.
The conditions of data set [2]: mifepristone 300 mg/day before weekly nab-paclitaxel, BC patients; cited from earlier work.
The test system of data set [3] is GR chromatin association in MDA-MB-231 cells. Put plainly: GR ChIP-sequencing and analysis. The following applies: co-treatment with Dex. It is filed as cell-based, human. On the procedure: MDA-MB-231 cells were grown to 80% confluence in 15-cm dishes in DMEM with 10% FBS, followed by 48h in DMEM supplemented with 2.5% charcoal-stripped FBS. […] Cells were cross-linked with 1% formaldehyde, quenched with glycine (final concentration of […]), and harvested. After cell lysis with ChIP lysis buffer (Magna ChIP A Chromatin Immunoprecipitation Kit, EMD Millipore), cells were sonicated to achieve the majority of DNA fragments between 200-400 bp. Input samples were preserved at -80° C. […] Following manufacturer's protocol, chromatin was eluted from GR ChIP and input samples. Library build and sequencing was performed at the University of Oregon Genomics Core facility using the NextSeq 500 sequencer. Quality control on sequences and adapter sequencing trimming was performed using Kapa Biosystems Illumina Library Quantification Kit. ChIP-seq analysis was carried out using the Galaxy platform (usegalaxy.org (111)). […] GR peaks for each treatment were normalized to its own input control sample. […] Selected GR peak locations in hg19 and GR peak maps were also individually analyzed using Integrative Genomics Viewer, IGV (Broad Institute (116)).

The structures appear in SMILES notation. “Also recorded” adds a separate entry of the source.

For `CC#C[C@]1(O)CC[C@H]2[C@@H]3CCC4=CC(=O)CCC4=C3[C@@H](c3ccc(N(C)C)cc3)C[C@@]21C` [Mif, mifepristone], the “Genes for which both GR modulators antagonized GR induction or repression by at least 25%” value in data set [1] (100 nM with 100 nM Dex) was 3,066. For the same compound, the “Antagonized GR-regulated genes shared with the other antagonist” value in data set [1] (C297 versus Mif, 100 nM) is on record as 68%. For the same compound, the “Pathway activation Z-score (Ingenuity Pathway Analysis) relative to Dex” value in data set [1] (n=462 genes, cell survival, invasion, EMT pathways, FIG. 13) is “relative dampening of Z-score magnitude”. The “Number of apoptotic cells induced by paclitaxel” value in the data set on apoptotic cells was “did not increase the number of apoptotic cells”. Besides, at GR LBD, the “Displacement of fluorescently-labeled Dex (F-Dex) from the GR LBD” value was “low nM affinities” and the “Fit of FP dose response curve (half-maximal FP signal)” value is on record as “able to fit data”. Further, the “Paclitaxel cytotoxicity under GC activation” value in the data set with tumor cell survival was “increase paclitaxel cytotoxicity both in vitro and in vivo”. Moreover, in data set [2], the “Safety and tolerability of the combination with nab-paclitaxel” value was “safe and tolerable; also recorded: potential for increased cytopenias”. In data set [3], the “Relative GR promoter enrichment (+/−3kb)” value is “decrease in relative GR promoter enrichment”.
